Earlier results as cited in patent publication US10548835B2, “Methods of reducing the signs of skin aging” (Kimberly-Clark Worldwide, Inc., priority 2014, dated 2020).

System: 3T3-L1 cells
Conditions: literature

For Fucoidan, the “adipogenesis (adipocyte differentiation)” value is given as “inhibit adipogenesis”.
